The source of these data is patent US10913871B2, “Ink composition, method for producing the same, and image-forming method” (FUJIFILM CORPORATION, priority 2017, dated 2021).

The nature of the data set: Solubility in water of specified hydrophobic compound or comparative compound. In kind it is physicochemical. The conditions noted are these: water at 25° C. The procedure: Specifically, a Erlenmeyer flask is charged with 20 g of the test substance and 80 g of water, and shaken at 25° C. for 24 hours. The resultant solution is filtered through a 5 μm membrane filter, to obtain filtrate. The obtained filtrate (5 g) is evaporated to dryness at 100° C. for 3 hours. From the mass of the residual, the content (mass %) of the test substance dissolved in the filtrate relative to the total amount of the filtrate is calculated. The calculated content (mass %) is defined as the solubility in water of the test substance.
Specifically, an Erlenmeyer flask is charged with 100 g of water; while the internal temperature is maintained at 25° C., the test substance is gradually dropped. The dropping is ended when visual observation finds cloudiness in the liquid within the Erlenmeyer flask. The mass (mass %) of the test substance dropped until the end of the dropping relative to the total mass of the liquid within the Erlenmeyer flask is defined as the solubility in water of the test substance.

With `CCCCCCCCCCC(CO)CCCCCCCC` (stereo not drawn) [2-Octyldodecanol], the Solubility in water was less than 1 mass %.
To `CCCCCCCCO` [Example 1-Octanol, 1-Octanol] belongs less than 1 mass %; to `CCCCCCCCCCCCCCCCCCCCCCO` [Example 1-Docosanol, 1-Docosanol], less than 1 mass %.
For `CCCCCCCCCCCCCCCCCC(=O)OC` [EXCEPARL MS] the value was less than 1 mass %; for `CCCCCCCCCCCCCCCCCCCCO` [Example 1-Eicosanol, 1-Eicosanol], less than 1 mass %; for `CCCCCCCCCCCCCCCCCCO` [Stearyl alcohol], less than 1 mass %.
